{"source": "patent US12097215B2", "about": "“Antibacterial composition and its use in treating bacterial infections” (Vector Vitale IP LLC, priority 2017, dated 2024)", "key": {"P. aeruginosa ATCC 27853 [1]": {"test_system": "P. aeruginosa ATCC 27853", "test": "MBC by plating tube contents on Mueller-Hinton medium", "assay_type": "cell-based", "procedure": "(§1) To evaluate the bactericidal action of the antibacterial composition based on light isotope ^64Zne the minimum bactericidal concentration (MBC) was determined by plating out 0.1 ml of the contents of each tube containing the antibacterial composition on Mueller-Hinton medium. The incubation was at 37° C. for 24 h.\n(§2) The MBC of the test samples was determined as the lowest concentration at which there was no growth on Mueller-Hinton agar medium."}, "E. coli ATCC 25922 [2]": {"test_system": "E. coli ATCC 25922", "test": "MBC by plating tube contents on Mueller-Hinton medium", "assay_type": "cell-based", "procedure": "as §1, §2"}, "S. aureus ATCC 25923 [3]": {"test_system": "S. aureus ATCC 25923", "test": "MBC by plating tube contents on Mueller-Hinton medium", "assay_type": "cell-based", "procedure": "as §1, §2"}, "P. aeruginosa ATCC 27853 [4]": {"test_system": "P. aeruginosa ATCC 27853", "test": "MIC by serial dilutions in broth (visible growth)", "method": "(§3) The minimum inhibitory concentration (MIC) and minimum bactericidal concentration (MBC) of the antibacterial composition enriched for the light isotope zinc ^64Zne was evaluated in the experiment. […] S. aureus ATCC 25923, E. coli ATCC 25922 and P. aeruginosa ATCC 27853 were used as test cultures.\n(§4) The studies were carried out using the method of serial dilutions in broth. To determine sensitivity of microorganisms to the antibacterial composition, 0.5 ml of broth was placed into each tube. The number of tubes was determined based on the desired number of dilutions and was increased by one for the “negative” control (no test composition). Series of two-fold serial dilutions of the test variants of the antibacterial composition were used and concentrations ranging from 450 mcg ^64Zne/ml to 0.000107 mcg ^64Zne/ml were obtained.\n(§5) Reference test strains of S. aureus ATCC 25923, E. coli ATCC 25922 and P. aeruginosa ATCC 27853 were incubated in Mueller-Hinton liquid broth at 37° C. for 24 hours. Standard bacterial suspension equivalent to 0.5 McFarland standard diluted 100-fold with the broth was used for the inoculation of the tubes after which the concentration of microorganism in it was approximately 10^6 CFU/ml.\n(§6) 0.5 ml of inoculum was added to each tube containing 0.5 ml of the appropriate dilution of a solution of the ^64Zn-enriched salt of interest. […] The final concentration of the microorganism in each tube was approximately 5×10^5 CFU/ml.\n(§7) The tubes were incubated at 35° C. in air for 16-20 or 20-24 hours (depending on the bacterial strain).\n(§8) To determine the presence of microorganism growth the test tubes with inoculum were viewed under transmitted light. Transmitted light was measured by spectrophotometry. The growth of culture in the presence of antibacterial compositions based on ^64Zne was compared with the reference test tube (“negative” control), containing the original inoculum and stored in the refrigerator. The MIC was determined as the lowest concentration of ^64Zne that inhibits visible growth of the microorganism. Both gram-positive (S. aureus) and gram-negative bacteria (P. aeruginosa, E. coli) were used in the experiments described below.\n(§9) That is, ^64Zne in the form of a salt was compared with a composition that contains zinc with a natural distribution of isotopes. […] Relevant samples containing salt of natural zinc with EDDA and natural zinc sulfate were used for the comparison.\n(§10) The following commercial antibacterial medications were used for the study: azithromycin and ceftriaxone and norfloxacin. The initial concentration of 3000 mcg/ml was used for the samples of all the above compounds. […] Serial dilutions of the above antibacterial compounds were also prepared in the same way as for the antibacterial composition of the invention. The same pathogenic strains of S. aureus ATCC 25923, E. coli ATCC 25922, P. aeruginosa ATCC 27853 were used for the study."}, "S. aureus ATCC 25923 [5]": {"test_system": "S. aureus ATCC 25923", "test": "MIC by serial dilutions in broth (visible growth)", "assay_type": "cell-based", "method": "as §3, §4, §5, §6, §7, §8, §9, §10"}, "E. coli ATCC 25922 [6]": {"test_system": "E. coli ATCC 25922", "test": "MIC by serial dilutions in broth (visible growth)", "assay_type": "cell-based", "method": "as §3, §4, §5, §6, §7, §8, §9, §10"}, "[7]": {"conditions": "Pseudomonas aeruginosa, ATCC27853, Table 10, commercial antibacterial agents, read-out: MBC"}, "[8]": {"conditions": "Escherichia coli, ATCC25922, Table 10, commercial antibacterial agents, read-out: MBC"}, "[9]": {"conditions": "Staphylococcus aureus, ATCC25923, Table 10, commercial antibacterial agents, read-out: MBC"}, "[10]": {"conditions": "Pseudomonas aeruginosa, ATCC27853"}, "[11]": {"conditions": "Staphylococcus aureus, ATCC25923, Table 9, commercial antibacterial agents, read-out: MIC"}, "[12]": {"conditions": "Escherichia coli, ATCC25922, Table 9, commercial antibacterial agents, read-out: MIC"}, "[13]": {"conditions": "concentration of ^64Zne, Tables 1-5"}}, "note": "Where two headings read alike, the source gives them in different places. Marks after values point to notes of the source that are not given here.", "data": [{"molecule": "CCn1cc(C(=O)O)c(=O)c2cc(F)c(N3CCNCC3)cc21", "note": "[norfloxacin, reference compound]", "values": [{"measurement": "MBC", "setting": "P. aeruginosa ATCC 27853 [1]; [7]", "result": "< 1500", "unit": "µg/mL"}, {"measurement": "MBC", "setting": "E. coli ATCC 25922 [2]; [8]", "result": "< 1500", "unit": "µg/mL"}, {"measurement": "MBC", "setting": "S. aureus ATCC 25923 [3]; [9]", "result": "< 1500", "unit": "µg/mL"}, {"measurement": "MIC", "setting": "P. aeruginosa ATCC 27853 [4]; [10]", "result": 188, "unit": "µg/mL"}, {"measurement": "MIC", "setting": "S. aureus ATCC 25923 [5]; [11]", "result": 11.7, "unit": "µg/mL"}, {"measurement": "MIC", "setting": "E. coli ATCC 25922 [6]; [12]", "result": 23.4, "unit": "µg/mL"}]}, {"molecule": "CO/N=C(\\C(=O)N[C@@H]1C(=O)N2C(C(=O)O)=C(CSc3nc(=O)c(=O)[nH]n3C)CS[C@H]12)c1csc(N)n1", "note": "[ceftriaxone, reference compound]", "values": [{"measurement": "MBC", "setting": "P. aeruginosa ATCC 27853 [1]; [7]", "result": "< 1500", "unit": "µg/mL"}, {"measurement": "MBC", "setting": "E. coli ATCC 25922 [2]; [8]", "result": 11.7, "unit": "µg/mL"}, {"measurement": "MBC", "setting": "S. aureus ATCC 25923 [3]; [9]", "result": 375, "unit": "µg/mL"}, {"measurement": "MIC", "setting": "P. aeruginosa ATCC 27853 [4]; [10]", "result": 750, "unit": "µg/mL"}, {"measurement": "MIC", "setting": "S. aureus ATCC 25923 [5]; [11]", "result": 11.7, "unit": "µg/mL"}, {"measurement": "MIC", "setting": "E. coli ATCC 25922 [6]; [12]", "result": 2.93, "unit": "µg/mL"}]}, {"molecule": "O=C([O-])CC(O)(CC(=O)[O-])C(=O)[O-].O=C([O-])CC(O)(CC(=O)[O-])C(=O)[O-].[Zn+2].[Zn+2].[Zn+2]", "note": "[^64Zne citrate]", "values": [{"measurement": "bactericidal activity (in words)", "setting": "P. aeruginosa ATCC 27853 [1]", "result": "satisfactory bactericidal activity"}, {"measurement": "MBC", "setting": "P. aeruginosa ATCC 27853 [1]; Table 6", "result": 112.5, "unit": "mcg ^64Zne/ml"}, {"measurement": "MBC", "setting": "E. coli ATCC 25922 [2]; Table 6", "result": "0.44* mcg ^64Zne/ml"}, {"measurement": "MBC", "setting": "S. aureus ATCC 25923 [3]; Table 6", "result": "0.028* mcg ^64Zne/ml"}, {"measurement": "MIC", "setting": "P. aeruginosa ATCC 27853 [4]; [13]", "result": 14.062, "unit": "µg/mL"}, {"measurement": "visible growth", "setting": "S. aureus ATCC 25923 [5]; ^64Zne 0.00011 mcg/ml", "result": "+"}, {"measurement": "visible growth", "setting": "S. aureus ATCC 25923 [5]; ^64Zne 0.00022 mcg/ml", "result": "+"}, {"measurement": "visible growth", "setting": "S. aureus ATCC 25923 [5]; ^64Zne 0.00043 mcg/ml", "result": "+"}, {"measurement": "visible growth", "setting": "S. aureus ATCC 25923 [5]; ^64Zne 0.00086 mcg/ml", "result": "+"}, {"measurement": "visible growth", "setting": "S. aureus ATCC 25923 [5]; ^64Zne 0.0017 mcg/ml", "result": "+"}, {"measurement": "visible growth", "setting": "S. aureus ATCC 25923 [5]; ^64Zne 0.0034 mcg/ml", "result": "+"}, {"measurement": "visible growth", "setting": "S. aureus ATCC 25923 [5]; ^64Zne 0.0069 mcg/ml", "result": "+"}, {"measurement": "visible growth", "setting": "S. aureus ATCC 25923 [5]; ^64Zne 0.014 mcg/ml", "result": "+"}, {"measurement": "visible growth", "setting": "S. aureus ATCC 25923 [5]; ^64Zne 0.027 mcg/ml", "result": "−"}, {"measurement": "visible growth", "setting": "S. aureus ATCC 25923 [5]; ^64Zne 0.055 mcg/ml", "result": "−"}, {"measurement": "visible growth", "setting": "S. aureus ATCC 25923 [5]; ^64Zne 0.11 mcg/ml", "result": "−"}, {"measurement": "visible growth", "setting": "S. aureus ATCC 25923 [5]; ^64Zne 0.22 mcg/ml", "result": "−"}, {"measurement": "visible growth", "setting": "S. aureus ATCC 25923 [5]; ^64Zne 0.44 mcg/ml", "result": "−"}, {"measurement": "visible growth", "setting": "S. aureus ATCC 25923 [5]; ^64Zne 0.88 mcg/ml", "result": "−"}, {"measurement": "visible growth", "setting": "S. aureus ATCC 25923 [5]; ^64Zne 1.76 mcg/ml", "result": "−"}, {"measurement": "visible growth", "setting": "S. aureus ATCC 25923 [5]; ^64Zne 3.52 mcg/ml", "result": "−"}, {"measurement": "visible growth", "setting": "S. aureus ATCC 25923 [5]; ^64Zne 7.03 mcg/ml", "result": "−"}, {"measurement": "visible growth", "setting": "S. aureus ATCC 25923 [5]; ^64Zne 14.06 mcg/ml", "result": "−"}, {"measurement": "visible growth", "setting": "S. aureus ATCC 25923 [5]; ^64Zne 28.13 mcg/ml", "result": "−"}, {"measurement": "visible growth", "setting": "S. aureus ATCC 25923 [5]; ^64Zne 56.25 mcg/ml", "result": "−"}, {"measurement": "visible growth", "setting": "S. aureus ATCC 25923 [5]; ^64Zne 112.5 mcg/ml", "result": "−"}, {"measurement": "visible growth", "setting": "S. aureus ATCC 25923 [5]; ^64Zne 225 mcg/ml", "result": "−"}, {"measurement": "MIC", "setting": "S. aureus ATCC 25923 [5]; [13]", "result": 0.0275, "unit": "µg/mL"}, {"measurement": "visible growth", "setting": "E. coli ATCC 25922 [6]; ^64Zne 0.00011 mcg/ml", "result": "+"}, {"measurement": "visible growth", "setting": "E. coli ATCC 25922 [6]; ^64Zne 0.00022 mcg/ml", "result": "+"}, {"measurement": "visible growth", "setting": "E. coli ATCC 25922 [6]; ^64Zne 0.00043 mcg/ml", "result": "+"}, {"measurement": "visible growth", "setting": "E. coli ATCC 25922 [6]; ^64Zne 0.00086 mcg/ml", "result": "+"}, {"measurement": "visible growth", "setting": "E. coli ATCC 25922 [6]; ^64Zne 0.0017 mcg/ml", "result": "+"}, {"measurement": "visible growth", "setting": "E. coli ATCC 25922 [6]; ^64Zne 0.0034 mcg/ml", "result": "+"}, {"measurement": "visible growth", "setting": "E. coli ATCC 25922 [6]; ^64Zne 0.0069 mcg/ml", "result": "+"}, {"measurement": "visible growth", "setting": "E. coli ATCC 25922 [6]; ^64Zne 0.014 mcg/ml", "result": "+"}, {"measurement": "visible growth", "setting": "E. coli ATCC 25922 [6]; ^64Zne 0.027 mcg/ml", "result": "−"}, {"measurement": "visible growth", "setting": "E. coli ATCC 25922 [6]; ^64Zne 0.055 mcg/ml", "result": "−"}, {"measurement": "visible growth", "setting": "E. coli ATCC 25922 [6]; ^64Zne 0.11 mcg/ml", "result": "−"}, {"measurement": "visible growth", "setting": "E. coli ATCC 25922 [6]; ^64Zne 0.22 mcg/ml", "result": "−"}, {"measurement": "visible growth", "setting": "E. coli ATCC 25922 [6]; ^64Zne 0.44 mcg/ml", "result": "−"}, {"measurement": "visible growth", "setting": "E. coli ATCC 25922 [6]; ^64Zne 0.88 mcg/ml", "result": "−"}, {"measurement": "visible growth", "setting": "E. coli ATCC 25922 [6]; ^64Zne 1.76 mcg/ml", "result": "−"}, {"measurement": "visible growth", "setting": "E. coli ATCC 25922 [6]; ^64Zne 3.52 mcg/ml", "result": "−"}, {"measurement": "visible growth", "setting": "E. coli ATCC 25922 [6]; ^64Zne 7.03 mcg/ml", "result": "−"}, {"measurement": "visible growth", "setting": "E. coli ATCC 25922 [6]; ^64Zne 14.06 mcg/ml", "result": "−"}, {"measurement": "visible growth", "setting": "E. coli ATCC 25922 [6]; ^64Zne 28.13 mcg/ml", "result": "−"}, {"measurement": "visible growth", "setting": "E. coli ATCC 25922 [6]; ^64Zne 56.25 mcg/ml", "result": "−"}, {"measurement": "visible growth", "setting": "E. coli ATCC 25922 [6]; ^64Zne 112.5 mcg/ml", "result": "−"}, {"measurement": "visible growth", "setting": "E. coli ATCC 25922 [6]; ^64Zne 225 mcg/ml", "result": "−"}, {"measurement": "visible growth", "setting": "E. coli ATCC 25922 [6]; ^64Zne 450 mcg/ml", "result": "−"}, {"measurement": "MIC", "setting": "E. coli ATCC 25922 [6]; [13]", "result": 0.0275, "unit": "µg/mL"}]}, {"molecule": "CC[C@H]1OC(=O)[C@H](C)[C@@H](O[C@H]2C[C@@](C)(OC)[C@@H](O)[C@H](C)O2)[C@H](C)[C@@H](O[C@@H]2O[C@H](C)C[C@H](N(C)C)[C@H]2O)[C@](C)(O)C[C@@H](C)CN(C)[C@H](C)[C@@H](O)[C@]1(C)O", "note": "[azithromycin, reference compound]", "values": [{"measurement": "MBC", "setting": "P. aeruginosa ATCC 27853 [1]; [7]", "result": "< 1500", "unit": "µg/mL"}, {"measurement": "MBC", "setting": "E. coli ATCC 25922 [2]; [8]", "result": "< 1500", "unit": "µg/mL"}, {"measurement": "MBC", "setting": "S. aureus ATCC 25923 [3]; [9]", "result": "< 1500", "unit": "µg/mL"}, {"measurement": "MIC", "setting": "P. aeruginosa ATCC 27853 [4]; [10]", "result": 1500, "unit": "µg/mL"}, {"measurement": "MIC", "setting": "S. aureus ATCC 25923 [5]; [11]", "result": 188, "unit": "µg/mL"}, {"measurement": "MIC", "setting": "E. coli ATCC 25922 [6]; [12]", "result": 1500, "unit": "µg/mL"}]}]}
